Reference: ChEMBL document CHEMBL5528077, “Structure-Based Discovery of High-Affinity Small Molecule Ligands and Development of Tool Probes to Study the Role of Chitinase-3-Like Protein 1” (J Med Chem, 2024)

Experiments:
[1] = in vivo; conditions: BALB/c, mouse, iv, 3 mg/kg
[2] = in vivo; conditions: BALB/c, mouse, iv, 3 mg/kg; remark: listed apart in the source
[3] = in vivo; conditions: BALB/c, mouse, po, 10 mg/kg

Vd [1] [L/kg]	clearance [2] [mL/min/kg]	bioavailability [3] [%]	SMILES
2.5	58	–	Cc1ccnc(N2CCC(N3C[C@H](C)OC[C@@H]3Cc3ccc(Cl)cc3)CC2)c1
9.25	69	5.6	CC(C)CN1C[C@H](Cc2ccc(Cl)cc2)N(C2CCN(c3ccccn3)CC2)C[C@@H]1C
